In the supplement of paper PMC10307832:

Experiments:
Assay in all cases: relative viability (nuclei count vs DMSO), 5 days (fraction); higher = more cells survive
[1] = test system: NCI-H1975
How it was run: (§1)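 Relative viability equals treated-well nuclei counts divided by vehicle-well nuclei counts. Counts came from 4× images of lung cancer cell lines grown in 1536-well plates for 5 days after pin-tool dosing on the day after seeding. Dosing used one drug alone or a fixed anchor-drug dose plus five library-drug doses (not always all listed) in √10 steps, and values are medians of duplicate plates.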

[2] = test system: NCI-H520
How it was run: as §1

[3] = test system: SW 900
How it was run: as §1

[4] = test system: NCI-H1734
How it was run: as §1

[5] = test system: ChaGo-K-1
How it was run: as §1

[6] = test system: NCI-H596
How it was run: as §1

[7] = test system: H3255
How it was run: as §1

[8] = test system: A-427
How it was run: as §1

[9] = test system: NCI-H2170
How it was run: as §1

[10] = test system: SK-MES-1
How it was run: as §1

[11] = test system: PC-3 [JPC-3]
How it was run: as §1

[12] = test system: NCI-H23
How it was run: as §1

[13] = test system: EKVX
How it was run: as §1

[14] = test system: NCI-H1755
How it was run: as §1

[15] = test system: LK-2
How it was run: as §1

[16] = test system: COR-L 105
How it was run: as §1

[17] = test system: HCC-366
How it was run: as §1

[18] = test system: NCI-H441
How it was run: as §1

[19] = test system: LOU-NH91
How it was run: as §1

[20] = test system: NCI-H1666
How it was run: as §1

[21] = test system: EMC-BAC-2
How it was run: as §1

## O=C(O)c1ccc(-c2c[nH]c3ncc(-c4ccccc4)cc23)cc1C1CCCC1 + O=C(CCCCCCC(=O)Nc1ccccc1)NO [Vorinostat] (partner 1 µM)
[1]; first compound 0.04 µM
  relative viability: 0.684
[1]; first compound 0.1265 µM
  relative viability: 0.763
[1]; first compound 0.4 µM
  relative viability: 0.736
[1]; first compound 1.265 µM
  relative viability: 0.441
[2]; first compound 0.04 µM
  relative viability: 0.643
[2]; first compound 0.1265 µM
  relative viability: 0.816
[2]; first compound 0.4 µM
  relative viability: 0.71
[2]; first compound 1.265 µM
  relative viability: 0.484
[3]; first compound 0.04 µM
  relative viability: 0.602
[3]; first compound 0.1265 µM
  relative viability: 0.611
[3]; first compound 0.4 µM
  relative viability: 0.582
[3]; first compound 1.265 µM
  relative viability: 0.437
[4]; first compound 0.04 µM
  relative viability: 0.866
[4]; first compound 0.1265 µM
  relative viability: 0.858
[4]; first compound 0.4 µM
  relative viability: 0.876
[4]; first compound 1.265 µM
  relative viability: 0.648
[5]; first compound 0.04 µM
  relative viability: 0.739
[5]; first compound 0.1265 µM
  relative viability: 0.786
[5]; first compound 0.4 µM
  relative viability: 0.772
[5]; first compound 1.265 µM
  relative viability: 0.686
[6]; first compound 0.04 µM
  relative viability: 0.499
[6]; first compound 0.1265 µM
  relative viability: 0.657
[6]; first compound 0.4 µM
  relative viability: 0.583
[6]; first compound 1.265 µM
  relative viability: 0.571
[7]; first compound 0.04 µM
  relative viability: 0.872
[7]; first compound 0.1265 µM
  relative viability: 0.795
[7]; first compound 0.4 µM
  relative viability: 0.83
[7]; first compound 1.265 µM
  relative viability: 0.791
[8]; first compound 0.04 µM
  relative viability: 0.822
[8]; first compound 0.1265 µM
  relative viability: 0.84
[8]; first compound 0.4 µM
  relative viability: 0.793
[8]; first compound 1.265 µM
  relative viability: 0.742
[9]; first compound 0.04 µM
  relative viability: 0.82
[9]; first compound 0.1265 µM
  relative viability: 0.863
[9]; first compound 0.4 µM
  relative viability: 0.893
[9]; first compound 1.265 µM
  relative viability: 0.734
[10]; first compound 0.04 µM
  relative viability: 1.13
[10]; first compound 0.1265 µM
  relative viability: 1.19
[10]; first compound 0.4 µM
  relative viability: 1.27
[10]; first compound 1.265 µM
  relative viability: 0.876
[11]; first compound 0.04 µM
  relative viability: 0.803
[11]; first compound 0.1265 µM
  relative viability: 0.836
[11]; first compound 0.4 µM
  relative viability: 0.787
[11]; first compound 1.265 µM
  relative viability: 0.667
[12]; first compound 0.04 µM
  relative viability: 0.791
[12]; first compound 0.1265 µM
  relative viability: 0.844
[12]; first compound 0.4 µM
  relative viability: 0.588
[12]; first compound 1.265 µM
  relative viability: 0.575
[13]; first compound 0.04 µM
  relative viability: 0.846
[13]; first compound 0.1265 µM
  relative viability: 0.758
[13]; first compound 0.4 µM
  relative viability: 0.713
[13]; first compound 1.265 µM
  relative viability: 0.712
[14]; first compound 0.04 µM
  relative viability: 0.762
[14]; first compound 0.1265 µM
  relative viability: 0.806
[14]; first compound 0.4 µM
  relative viability: 0.797
[14]; first compound 1.265 µM
  relative viability: 0.745
[15]; first compound 0.04 µM
  relative viability: 0.333
[15]; first compound 0.1265 µM
  relative viability: 0.311
[15]; first compound 0.4 µM
  relative viability: 0.385
[15]; first compound 1.265 µM
  relative viability: 0.199
[16]; first compound 0.04 µM
  relative viability: 0.912
[16]; first compound 0.1265 µM
  relative viability: 0.942
[16]; first compound 0.4 µM
  relative viability: 0.773
[16]; first compound 1.265 µM
  relative viability: 0.921
[17]; first compound 0.04 µM
  relative viability: 0.368
[17]; first compound 0.1265 µM
  relative viability: 0.531
[17]; first compound 0.4 µM
  relative viability: 0.394
[17]; first compound 1.265 µM
  relative viability: 0.403
[18]; first compound 0.04 µM
  relative viability: 0.866
[18]; first compound 0.1265 µM
  relative viability: 0.837
[18]; first compound 0.4 µM
  relative viability: 0.615
[18]; first compound 1.265 µM
  relative viability: 0.445
[19]; first compound 0.04 µM
  relative viability: 0.987
[19]; first compound 0.1265 µM
  relative viability: 0.992
[19]; first compound 0.4 µM
  relative viability: 0.942
[19]; first compound 1.265 µM
  relative viability: 0.86
[20]; first compound 0.04 µM
  relative viability: 1.04
[20]; first compound 0.1265 µM
  relative viability: 1.02
[20]; first compound 0.4 µM
  relative viability: 1.08
[20]; first compound 1.265 µM
  relative viability: 0.737
[21]; first compound 0.04 µM
  relative viability: 0.421
[21]; first compound 0.1265 µM
  relative viability: 0.575
[21]; first compound 0.4 µM
  relative viability: 0.449
[21]; first compound 1.265 µM
  relative viability: 0.391
